Data taken from ChEMBL document CHEMBL1142494, “Pharmacophore modeling and molecular docking led to the discovery of inhibitors of human immunodeficiency virus-1 replication targeting the human cellular aspartic acid-glutamic acid-alanine-aspartic acid box polypeptide 3” (J Med Chem, 2008).
Active and inactive are the calls of the source. The rule behind the calls is not given here.

Key:
[1] = target: ATP-dependent RNA helicase DDX3X (Homo sapiens) (UniProt O00571); assay: Inhibition of ATPase activity in human recombinant DDX3 expressed in Escherichia coli by luciferase-based luminescence assay in presence of ATP
[2] = target: Proto-oncogene tyrosine-protein kinase Src (Homo sapiens) (UniProt P12931); assay: Inhibition of c-Src upto 100 uM
[3] = target: Polynucleotide kinase (Enterobacteria phage T4) (UniProt P06855); assay: Inhibition of T4 polynucleotide kinase upto 100 uM; conditions: Tequatrovirus T4
[4] = system: Hepacivirus hominis; assay: Inhibition of HCV NS3 ATPase/helicase upto 100 uM

ATP-dependent RNA helicase DDX3X (Homo sapiens), sequence (O00571 2-662 limits assumed): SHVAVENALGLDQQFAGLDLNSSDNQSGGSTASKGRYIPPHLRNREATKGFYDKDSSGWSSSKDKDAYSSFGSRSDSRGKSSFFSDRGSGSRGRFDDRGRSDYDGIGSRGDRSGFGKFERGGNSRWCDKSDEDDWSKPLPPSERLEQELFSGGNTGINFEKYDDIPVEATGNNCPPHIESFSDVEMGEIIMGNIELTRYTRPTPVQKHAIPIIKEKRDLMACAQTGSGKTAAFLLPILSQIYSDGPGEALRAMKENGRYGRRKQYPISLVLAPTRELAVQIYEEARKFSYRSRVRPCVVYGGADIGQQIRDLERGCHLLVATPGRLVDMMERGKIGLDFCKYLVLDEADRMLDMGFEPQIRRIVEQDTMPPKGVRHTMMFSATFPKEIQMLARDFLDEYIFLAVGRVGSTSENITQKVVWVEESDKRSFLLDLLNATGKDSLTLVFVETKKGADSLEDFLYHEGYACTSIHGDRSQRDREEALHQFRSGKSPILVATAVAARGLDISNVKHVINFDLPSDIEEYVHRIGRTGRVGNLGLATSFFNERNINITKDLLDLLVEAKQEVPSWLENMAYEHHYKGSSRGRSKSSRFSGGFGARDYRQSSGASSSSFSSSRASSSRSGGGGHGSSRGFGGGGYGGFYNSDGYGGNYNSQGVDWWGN
Proto-oncogene tyrosine-protein kinase Src (Homo sapiens), sequence (P12931 2-536 limits assumed): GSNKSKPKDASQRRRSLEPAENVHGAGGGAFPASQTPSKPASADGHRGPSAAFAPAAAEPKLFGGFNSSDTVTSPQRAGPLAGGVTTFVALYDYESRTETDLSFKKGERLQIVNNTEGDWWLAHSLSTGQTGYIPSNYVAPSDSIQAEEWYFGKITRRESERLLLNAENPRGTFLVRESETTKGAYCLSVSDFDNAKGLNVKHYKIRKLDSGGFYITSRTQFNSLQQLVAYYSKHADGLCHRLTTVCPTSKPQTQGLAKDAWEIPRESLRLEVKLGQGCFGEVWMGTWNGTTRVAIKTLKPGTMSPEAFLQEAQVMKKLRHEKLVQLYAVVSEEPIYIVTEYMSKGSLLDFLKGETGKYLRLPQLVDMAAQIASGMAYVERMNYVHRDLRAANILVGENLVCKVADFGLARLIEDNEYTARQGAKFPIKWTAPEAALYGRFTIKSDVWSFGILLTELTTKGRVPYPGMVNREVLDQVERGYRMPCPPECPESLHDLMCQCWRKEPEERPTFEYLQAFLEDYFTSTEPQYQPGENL
Polynucleotide kinase (Enterobacteria phage T4), sequence (P06855 whole entry): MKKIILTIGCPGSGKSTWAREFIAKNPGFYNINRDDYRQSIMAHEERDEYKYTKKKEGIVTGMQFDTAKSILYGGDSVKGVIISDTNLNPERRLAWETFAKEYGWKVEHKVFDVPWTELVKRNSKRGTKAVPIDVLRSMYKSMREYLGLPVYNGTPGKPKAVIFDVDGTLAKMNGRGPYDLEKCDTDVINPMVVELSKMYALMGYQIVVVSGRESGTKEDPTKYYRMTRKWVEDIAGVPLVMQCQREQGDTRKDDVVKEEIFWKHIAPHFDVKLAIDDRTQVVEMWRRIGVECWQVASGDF

Activity [1] | SMILES | also measured
inactive | O=C(CCN1C(=O)/C(=C/c2ccccc2Cl)SC1=S)Nc1ccccc1O | –
inactive | O=C(CN1C(=O)/C(=C/c2cccc(Br)c2)SC1=S)Nc1cccc(O)c1 | –
inactive | O=C(CCN1C(=O)/C(=C/c2ccccc2)SC1=S)Nc1ccccc1O | –
inactive | N#C/C(=C\c1ccc(-c2ccccc2Cl)o1)c1nn(-c2ccccc2)c(N)c1C#N | –
inactive | N#C/C(=C\c1ccc(-c2ccccc2[N+](=O)[O-])o1)c1nn(CCO)c(N)c1C#N | –
inactive | Cc1ccc(/C=C2\SC(=S)N(CCC(=O)Nc3cccc(Cl)c3O)C2=O)cc1 | –
inactive | N#C/C(=C\c1ccc(-c2ccc(C(=O)O)cc2)o1)c1n[nH]c(N)c1C#N | –
inactive | O=C(CCN1C(=O)/C(=C/c2ccccc2)SC1=S)Nc1cccc(O)c1 | –
inactive | Cc1ccc(/C=C2\SC(=S)N(CCC(=O)Nc3ccccc3O)C2=O)cc1 | –
inactive | Cc1ccc(-c2ccc(/C=C(\C#N)c3n[nH]c(N)c3C#N)o2)c([N+](=O)[O-])c1 | –
– | O=C(CCN1C(=O)/C(=C/c2cccc(Br)c2)SC1=S)Nc1ccccc1O | Activity [2]: inactive; Activity [3]: inactive; Activity [4]: inactive
inactive | COc1ccccc1NC(=O)CCN1C(=O)/C(=C/c2cccc(Br)c2)SC1=S | –
